Read-outs that look alike come from different tables or passages of the source.
Key:
[1] = system: methacholine-induced mucin hypersecretion; assay: Duration of action of test peptides in a murine model of asthma; assay type: in vivo; conditions: Balb/C mice
From the text: Experiments were designed to test whether or not the MANS peptide and other test peptides related thereto inhibit hypersecretion of mucin in murine airway in vivo. The ovalbumin-sensitized mouse model of allergic inflammation and asthma used in these studies was as described by Singer et al. (2004), supra. As a negative control, a control peptide containing an N-terminal myristoyl group and the same amino acids as MANS peptide but arranged in random order (i.e., the random N-terminal sequence, RNS, myristoyl-peptide 232) was tested alongside the proposed active peptides. BP2 mice, aged 6-8 wks, were immunized subcutaneously twice at weekly intervals with 1 μg of ovalbumin. After 14 days of sensitization, the animals were exposed to aerosolized ovalbumin, which causes a pronounced goblet cell hyperplasia after 72 hours. At the 72 hr time point, the secretagogue, methacholine ([…]) was delivered using a Buxco system nebulizer providing a fine aerosol for 90 seconds. Fifteen min prior to the secretagogue challenge, 50 μL of the test peptide, at 3 different concentrations (10 μM, 100 μM, or 140 μM), was administered by intratracheal route. The RNS peptide was tested at the highest dose level only (50 μL of 140 μM solution). […] Each experiment was carried out in 6 mice per point, and each set of experiments was repeated 3 times. To test strain-to-strain variations, the above experiment was repeated in Balb/C mice under similar protocol. Both stimulated and unstimulated mucin secretion, in mice treated with […] sodium acetate (data not shown), were identical to saline control. Following the methacholine challenge, the animals were sacrificed and bronchoalveolar lavage (BAL) performed on 6 animals per group for analysis of secreted mucin.
Mice were sacrificed by cervical dislocation, followed by rapid exposure of the trachea and insertion of a cannula through a small incision. Bronchoalveolar lavage (BAL) fluid was collected with 0.5 ml followed by 3×1 ml PBS containing PMSF (5 mM), EDTA (5 mM), and DTT (5 mM). BAL fluid was separated into cell-free and cell fractions via brief centrifugation prior to any analyses being performed. The cell-free supernatants were analyzed for the presence of mucin via an ELISA method using anti-mucin antibodies shown to react with mouse mucin. Specifically, a mouse anti-MUC5AC antibody that recognizes the carbohydrate portion of secreted mucin was used in these assays. Data generated from each BAL sample were normalized to total protein as determined by Bradford assay. Mucin content was expressed as the value obtained with the anti-mucin antibody minus that obtained with the non-immune control antibody. All ELISA data were statistically examined using a one-way ANOVA.
Experiments were designed to determine the duration of action of test peptides in a murine model of asthma. As described in Method 1A, Balb/C mice were immunized with ovalbumin. After 14 days, the animals were challenged with aerosolized ovalbumin. After 72 hours the secretagogue, methacholine was delivered by aerosolization. The test peptides ([…] of 100 µM solution) were administered by intratracheal route 30 min, 60 min, or 120 min prior to methacholine challenge. The animals were sacrificed and BAL performed for analysis of secreted mucin The results of this experiment are given in Table VI.

[2] = Stability of test peptides in human plasma (LC/MS/MS, first order half-life); assay type: in vitro ADME; conditions: human plasma, 37° C.
Description: Various test peptides in human plasma, human BALF, and CF patient mucus were analyzed to determine the susceptability of the test peptide to proteolysis in the biological fluids. […] The samples were analyzed either on the same day as received or stored at −20° C. and analyzed within the following two days.
Fresh human blood samples were collected in citrate buffered vacuutrainers (in absence of EDTA or heparin). Red blood cells (RBC) were removed by centrifugation of the blood at 4000×g for 10 min at 4° C. Plasma aliquots (0.9 mL) were then spiked with 0.1 mL of 0.5 mg/mL solution of the test peptide in 75 mM sodium acetate buffer at pH 7.0 and incubated in a water bath maintained at 37° C. Duplicate aliquots of 10 μL, were withdrawn at 5, 15, 30, 60, and 180 minutes intervals and immediately “quenched” with 990 μL of a solution consisting of 50% acetonitrile+50% water containing 0.2% formic acid. The samples were then subjected to liquid chromatography-mass spectrometry (LCMS) analysis.
All samples were analyzed using LC/MS/MS (MDS/SCIEX, API 4000 Model). Chromatography was performed using a Phenomenex Luna C18 column, while mass spectrometry was performed using positive ion electrospray ionization.
Calibration standards were analyzed by LCMS at concentrations of 0.100 μg/mL, 1.00 μg/mL, 10.0 μg/mL, and 100 μg/mL for each peptide, with the exception of the calibration standards for peptides myr-PEPTIDE 106, PEPTIDE 106, PEPTIDE 106-NH2, PEPTIDE 106, and cyclic peptide, cyc-PEPTIDE 106, in human mucus, which were analyzed at concentrations of 0.100 μg/mL, 1.00 μg/mL, 10.0 μg/mL, and 75 μg/mL. Standards were prepared in 1% human BALF, plasma, or mucus in 50/50 water/acetonitrile mixture containing 0.2% formic acid. The instrument response values for each set of standards were fit using a 1/(concentration)^2 linear least-squares line. Sample concentrations were calculated using the slope and intercept of this line. Concentrations outside of the calibration range were determined by extrapolating the calibration curve. […]
For the analysis of peptide concentration in plasma, duplicate calibration standards were analyzed at a concentration of 25 μg/mL and 50 μg/mL for each peptide. The instrument response values for each set of standards were fit through an intercept of 0 using an unweighted, linear least-squares line. Sample concentrations were calculated using the slope and intercept of this line. Concentrations outside of the calibration range were determined by extrapolating the calibration curve.
Watson fits the log transformed data with a least-squares line to determine parameters such as Cmax (maximum concentration), intercept, rate constant, slope, and T1/2 (half-life). The resulting kinetic parameters were based on the linear fit, not the actual concentration values.
Time-zero calibration standards in solution were not included as part of the kinetic profiles.

[3] = peptide intratracheal 30 min prior to methacholine challenge
[4] = peptide intratracheal 60 min prior to methacholine challenge
[5] = peptide intratracheal 120 min prior to methacholine challenge
[6] = 2nd experiment, read-out: Plasma t1/2 (2nd exp.) (converted)

Substance	Duration of action, mucin secretion (% of Control) [1, 3]	Duration of action, mucin secretion (% of Control) [1, 4]	Duration of action, mucin secretion (% of Control) [1, 5]	half-life [2, 6] [min]	half-life ([2]; 1st experiment, read-out: Plasma t1/2 (1st exp.) (converted)) [min]
Ac-GAQFSKTAAK-OH [Ac-peptide 106]	21 % of Control	72 % of Control	70 % of Control	1.8	
H-GAQFSKTAAK-OH [peptide 106, GAQFSKTAAK]	23 % of Control	48 % of Control	57 % of Control	9	16.8

— US9598463B2, “Mucin hypersecretion inhibitors and methods of use” (BIOMARCK PHARMACEUTICALS, LTD., priority 2005, dated 2017)
